Test results: PubChem BioAssay AID1333 (NMMLSC, 2008)

Each compound was assayed against Cell division control protein 42 homolog (Homo sapiens) (UniProt P60953) (assay: inhibition of fluorescent GTP binding to constitutively active Cdc42 – biochemical, multiplex bead flow cytometry, Bodipy-FL-GTP, dose response (AID 1333;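 note: potency of compounds that compete with and reduce fluorescent GTP binding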)). Conditions: bead-based flow cytometry.

Q: `NS(=O)(=O)c1ccc(N2N=C(c3ccccc3)CC2c2cccc(F)c2)cc1` (configuration not stated) was tested. Which EC50 did it give?
A: 9.59 µM

Q: How did the EC50 turn out when `Cc1cccc2cc(CN(Cc3cccs3)C(c3nnnn3C3CCCC3)C(C)C)c(=O)[nH]c12` (configuration not stated) was run?
A: 1.63 µM

Q: With `OC(CNCCc1ccc(Cl)cc1)COc1ccc2ccccc2c1` (configuration not stated) as the compound, how does the EC50 read?
A: 11.3 µM

Q: With `CCn1nc(/C=C/c2ccccc2)nc2c(=O)n(C)c(=O)nc1-2` as the compound, how does the EC50 read?
A: 1.44 µM

Q: With `Cc1ccc(C)c(OCCn2cc(C(=O)O)c3ccccc32)c1` as the compound, how does the EC50 read?
A: 0.358 µM

Q: For `O=C(NCc1ccc2c(c1)OCO2)c1ccc(CSCc2cccc(Cl)c2)o1`, which EC50 is on record?
A: 20.6 µM

Q: `Cc1ccc(NC(=O)C2=C(c3ccccc3)S(=O)(=O)CCS2(=O)=O)cc1` was tested. Which EC50 did it give?
A: 58.7 µM

Q: With `CCOc1ccc(/C=C2\SC(N3CCc4ccccc4C3)=NC2=O)cc1` as the compound, how does the EC50 read?
A: 16.5 µM

Q: For `CS(=O)(=O)c1ccc(C(=O)OCC(=O)NC(=O)C2CCCCC2)cc1[N+](=O)[O-]`, which EC50 is on record?
A: 12.9 µM

Q: For `Cc1cc(C)c(C)c(C(=O)c2ccccc2C(=O)O)c1C`, which EC50 is on record?
A: 4.95 µM

Q: How did the EC50 turn out when `CC(C)C(NCc1c(Cl)cccc1Cl)C(=O)O` (configuration not stated) was run?
A: 5.85 µM

Q: For `CCc1ccc(NS(=O)(=O)c2ccc3[nH]cc(C(=O)N4CCc5ccccc54)c(=O)c3c2)cc1`, which EC50 is on record?
A: 50.1 µM

Q: `COc1cccc(-n2nnnc2S(C)(=O)=O)c1` was tested. Which EC50 did it give?
A: 15.4 µM

Q: `CCOC(=O)c1cc([N+](=O)[O-])c([N+](=O)[O-])cc1NC(C)=O` was tested. Which EC50 did it give?
A: 7.18 µM

Q: Which EC50 does the source give for `O=C(NCc1cccs1)c1cccnc1C(=O)O` here?
A: 4.31 µM

Q: Which EC50 does the source give for `O=C(Nc1ccccc1)C1=C(c2ccccc2)S(=O)(=O)CCS1(=O)=O` here?
A: 43.9 µM

Q: `O=C(O)c1ccccc1NCCc1ccc(Cl)cc1` was tested. Which EC50 did it give?
A: 0.885 µM

Q: With `COC(=O)c1cccnc1SCCc1ccccc1` as the compound, how does the EC50 read?
A: 24.2 µM

Q: Which EC50 does the source give for `O=C(C#CC1CCCCC1)c1ccc([N+](=O)[O-])cc1` here?
A: 45.9 µM

Q: Which EC50 does the source give for `CCCN1C(=O)/C(=C/C=C2\N(CC)c3ccccc3C2(C)C)SC1=S` here?
A: 5.59 µM

Q: With `O=C(O)c1ccccc1Sc1ncnc2sc3c(c12)CCC3` as the compound, how does the EC50 read?
A: 1.84 µM

Q: How did the EC50 turn out when `COc1ccc(-c2cc(C#N)nc(N3CCNCC3)n2)cc1` was run?
A: 27.1 µM

Q: For `O=C(C#Cc1ccc(F)cc1)c1ccc([N+](=O)[O-])cc1`, which EC50 is on record?
A: 3.55 µM

Q: How did the EC50 turn out when `N#Cc1c(-c2ccccc2)nc(SCC(=O)Nc2ccccc2)[nH]c1=O` was run?
A: 1.66 µM

Q: `O=C(O)/C=C/c1cn(Cc2ccccc2)nc1-c1cccs1` was tested. Which EC50 did it give?
A: 2.18 µM

Q: With `CCCc1nc2c(=O)n(C)c(=O)nc-2n(C)n1` as the compound, how does the EC50 read?
A: 1.77 µM

Q: For `O=C(Nc1nnc(-c2ccc3c(c2)OCCO3)o1)c1ccc(Cc2ccccc2)cc1`, which EC50 is on record?
A: 2.79 µM

Q: With `Cc1nc2c(=O)n(C)c(=O)nc-2n(C)n1` as the compound, how does the EC50 read?
A: 1.61 µM

Q: With `O=C(O)c1cc(Sc2ccc(Cl)cc2)nc2ccccc12` as the compound, how does the EC50 read?
A: 18.7 µM

Q: With `COc1cccc(NC(=O)COC(=O)/C=C/c2ccc(Cl)cc2Cl)c1` as the compound, how does the EC50 read?
A: 3.53 µM

Q: How did the EC50 turn out when `CC(=O)c1ccc(C#CC(=O)c2ccc([N+](=O)[O-])cc2)cc1` was run?
A: 0.989 µM

Q: With `O=C(C#Cc1ccccc1)c1cccc([N+](=O)[O-])c1` as the compound, how does the EC50 read?
A: 13.5 µM

Q: Which EC50 does the source give for `Cc1ccc(-n2c(-c3cnccn3)n[nH]c2=S)c(Br)c1` here?
A: 53.8 µM

Q: With `Cc1ccc(SC(CC(=O)c2ccc(C(C)(C)C)cc2)C(=O)O)cc1` (configuration not stated) as the compound, how does the EC50 read?
A: 5.11 µM

Q: With `Cc1cc(C(=O)Cn2nc(C(=O)O)c3ccccc3c2=O)c(C)n1-c1ccc(OC(F)F)cc1` as the compound, how does the EC50 read?
A: 4.89 µM

Q: With `COc1ccc(C2CC(c3ccccc3)=NN2c2ccc(S(N)(=O)=O)cc2)cc1` (configuration not stated) as the compound, how does the EC50 read?
A: 8.04 µM

Q: `Cc1nn(Cc2ccccc2)c(Cl)c1C(=O)O` was tested. Which EC50 did it give?
A: 13.9 µM
